Experimental data from the NIST ThermoML archive (doi:10.1016/j.jct.2014.07.024).

Test: excess molar enthalpy (molar enthalpy of mixing); xn = mol fraction of the nth substance listed
Conditions: 101 kPa, Crystal, Calvet calorimetry

O=[N+]([O-])[O-].[Rb+] [rubidium nitrate] + O=[N+]([O-])[O-].[Cs+]
excess molar enthalpy [kJ/mol]
Conditions	298.15 K	473.15 K
x1 = 0.1	0.5	–
x1 = 0.16	–	0.259
x1 = 0.23	1.1	–
x1 = 0.32	1.2	–
x1 = 0.36	–	0.554
x1 = 0.5	1.4	0.582
x1 = 0.57	1.4	–
x1 = 0.65	1.3	–
x1 = 0.68	1.2	–
x1 = 0.73	–	0.433
x1 = 0.8	0.9	–
